Experimental data from ChEMBL document CHEMBL1125015, “Synthesis and antiarrhythmic activity of 5,11-dihydro[1]benzoxepino[3,4-b]pyridines” (1990).

Key:
[1] = organism: Mus musculus; assay: Compound was evaluated by measuring the 50% inhibition of chloroform induced ventricular arrhythmia in mice; format: functional; conditions: Cardiac ventricle
[2] = system: Canis familiaris; assay: No. of cases tested was measured on ouabain induced ventricular arrhythmia at 5 mg/kg, iv in dogs; 3/6; format: functional, Canis lupus familiaris, Cardiac ventricle
[3] = Ratio of ED100 (Dose po required to double the prodrug pupil size in mice) to that of ED50 (50% inhibition of chloroform induced ventricular arrhythmia in mice); format: functional
[4] = system: Mus musculus; assay: Dose (po) required to double the prodrug pupil size; format: functional
[5] = target: T1, Muscarinic acetylcholine receptor (Rattus norvegicus) (UniProt P08482+P08483+P08485+P08911+P10980); assay: Inhibitory effect on muscarinic acetylcholine receptor binding affinity at a concentration of (10e -5)M; format: protein assay
[6] = system: Canis familiaris; assay: No. of cases tested was measured on ouabain induced ventricular arrhythmia at 5 mg/kg, iv in dogs; 0/3; format: functional, Canis lupus familiaris, Cardiac ventricle
[7] = organism: Mus musculus; assay: Inhibition of chloroform induced ventricular arrhythmia; format: functional, Cardiac ventricle
[8] = target: T1, Muscarinic acetylcholine receptor (Rattus norvegicus); assay: Inhibitory effect on muscarinic acetylcholine receptor binding affinity at a concentration of (10e -6)M; format: protein assay
[9] = system: Canis familiaris; assay: No. of cases tested was measured on ouabain induced ventricular arrhythmia at 5 mg/kg, iv in dogs; 0/4; format: functional, Canis lupus familiaris, Cardiac ventricle
[10] = system: Canis familiaris; assay: No. of cases tested was measured on ouabain induced ventricular arrhythmia at 5 mg/kg, iv in dogs; 0/2; format: functional, Canis lupus familiaris, Cardiac ventricle
[11] = system: Canis familiaris; assay: No. of cases tested was measured on ouabain induced ventricular arrhythmia at 5 mg/kg, iv in dogs; 1/3; format: functional, Canis lupus familiaris, Cardiac ventricle
[12] = system: Canis familiaris; assay: No. of cases tested was measured on ouabain induced ventricular arrhythmia at 5 mg/kg, iv in dogs; 2/2; format: functional, Canis lupus familiaris, Cardiac ventricle
[13] = system: Canis familiaris; assay: No. of cases tested was measured on ouabain induced ventricular arrhythmia at 5 mg/kg, iv in dogs; 1/4; format: functional, Canis lupus familiaris, Cardiac ventricle
[14] = system: Canis familiaris; assay: No. of cases tested was measured on ouabain induced ventricular arrhythmia at dose (10mg/Kg, iv); 0/2; format: functional, Canis lupus familiaris, Cardiac ventricle
[15] = system: Canis familiaris; assay: No. of cases tested was measured on ouabain induced ventricular arrhythmia at 5 mg/kg, iv in dogs; 6/6; format: functional, Canis lupus familiaris, Cardiac ventricle
[16] = system: Canis familiaris; assay: No. of cases tested was measured on ouabain induced ventricular arrhythmia at 5 mg/kg, iv in dogs; 0/1; format: functional, Canis lupus familiaris, Cardiac ventricle
[17] = system: Canis familiaris; assay: No. of cases tested was measured on ouabain induced ventricular arrhythmia at dose 10mg/Kg, iv; 0/3; format: functional, Canis lupus familiaris, Cardiac ventricle
[18] = system: Canis familiaris; assay: Antiarrhythmic activity in ouabain-induced ventricular arrhythmia in dog at compound concentration of 10 mg/kg; format: functional, Canis lupus familiaris, Heart
[19] = system: Canis familiaris; assay: No. of cases tested was measured on ouabain induced ventricular arrhythmia at 5 mg/kg, iv in dogs; 3/3; format: functional, Canis lupus familiaris, Cardiac ventricle
[20] = system: Canis familiaris; assay: No. of cases tested was measured on ouabain induced ventricular arrhythmia at 5 mg/kg, iv in dogs; 2/3; format: functional, Canis lupus familiaris, Cardiac ventricle
[21] = system: Canis familiaris; assay: No. of cases tested was measured on ouabain induced ventricular arrhythmia at 5 mg/kg, iv in dogs; 1/7; format: functional, Canis lupus familiaris, Cardiac ventricle
[22] = Mus musculus, Cardiac ventricle, read-out: ED50

Row | Compound | inhibition [5] [%] | ED50 [7, 22] [mg/kg] | inhibition [8] [%] | No. positive cases/tested [10] | also measured
1 | CCN(CC)CCNC1c2cc(OC)ccc2OCc2ncccc21 (configuration not stated) [listing 1 of 2 here] | – | – | – | – | ED50 [1]: 62 mg/kg; No. positive cases/tested [2]: 3; Ratio [3]: 4; ED100 [4]: 194 mg/kg
2 | COc1ccc2c(c1)C(NCCN1CCCC1)c1cccnc1CO2 (configuration not stated) | 12 | > 100 | 3 | – | No. positive cases/tested [6]: 0
3 | CCN(CC)CC/C=C1\c2cc(OC)ccc2OCc2ncccc21 | 27 | > 100 | 3 | – | No. positive cases/tested [9]: 0
4 | COc1ccc2c(c1)C(NCCN)c1cccnc1CO2 (configuration not stated) | 5 | > 100 | -1 | 0 | –
5 | CCN(CC)CCNC1c2cccnc2COc2c(OC)cccc21 (configuration not stated) | 37 | > 100 | 12 | 0 | –
6 | COc1ccc2c(c1)C(NCCN1[C@H](C)CC[C@@H]1C)c1cccnc1CO2 (some centres not stated) | 15 | > 100 | 3 | – | No. positive cases/tested [11]: 1
7 | CCN(CC)CC/C=C1/c2ccccc2OCc2ncccc21 | 80 | > 17 | 28 | – | No. positive cases/tested [12]: 2
8 | CCN(CC)CCCNC1c2cc(OC)ccc2OCc2ncccc21 (configuration not stated) | 24 | 50 | 4 | – | No. positive cases/tested [11]: 1
9 | CCN(CC)CC/C=C1/c2cc(OC)ccc2OCc2ncccc21 | 26 | 14 | 5 | – | No. positive cases/tested [13]: 1
10 | CCN(CC)CCNC1c2cc(N(C)C)ccc2OCc2ncccc21 (configuration not stated) | 19 | > 100 | 4 | – | No. positive cases/tested [14]: 0
11 | CCN(CC)CCNC1c2cc(C)ccc2OCc2ncccc21 (configuration not stated) | – | > 100 | – | – | –
12 | CC(C)N(CCC(C(N)=O)(c1ccccc1)c1ccccn1)C(C)C (configuration not stated) [DISOPYRAMIDE] | 7 | 35 | -1 | – | No. positive cases/tested [15]: 6; Ratio [3]: 0.6; ED100 [4]: 20 mg/kg
13 | CCN(CC)CCNC1c2cc(OC(C)C)ccc2OCc2ncccc21 (configuration not stated) | 12 | 53 | 3 | 0 | –
14 | CCN(CC)CC(=O)NC1c2cc(OC)ccc2OCc2ncccc21 (configuration not stated) | 1 | > 100 | -3 | 0 | –
15 | CCN(CC)CCNC1c2cc(F)ccc2OCc2ncccc21 (configuration not stated) | – | > 100 | – | 0 | –
16 | COc1ccc2c(c1)C(NCCN1CCOCC1)c1cccnc1CO2 (configuration not stated) | 0 | > 100 | 0 | 0 | –
17 | COc1ccc2c(c1)C(NCCN1[C@@H](C)CC[C@@H]1C)c1cccnc1CO2 (some centres not stated) | 6 | 100 | -2 | – | No. positive cases/tested [16]: 0
18 | CCN(CC)CCNC1c2ccccc2OCc2ncccc21 (configuration not stated) | – | 93 | – | – | No. positive cases/tested [17]: 0
19 | CCN(CC)CCNC1c2cc(OC)c(OC)cc2OCc2ncccc21 (configuration not stated) | 2 | > 100 | 7 | 0 | –
20 | CCN(CC)CCNC1c2cc(OC)ccc2OCc2ncccc21 (single isomer, unassigned; (+)) | – | – | – | – | Inhibition [18]: 51%
21 | CCN(CC)CCNC1c2ccc(OC)cc2OCc2ncccc21 (configuration not stated) | 7 | > 100 | 14 | 0 | –

Row | Compound | inhibition [5] [%] | ED50 [7, 22] [mg/kg] | inhibition [8] [%] | No. positive cases/tested [10] | also measured
22 | CCN(CC)CCNC1c2cc(OC)ccc2OCc2ncccc21 (configuration not stated) [listing 2 of 2 here] | 8 | – | -3 | – | –
23 | CCN(CC)CCNC1c2cc(Cl)ccc2OCc2ncccc21 (configuration not stated) | – | > 100 | – | – | –
24 | CCN1CCCC1CNC1c2cc(OC)ccc2OCc2ncccc21 (stereo in doubt; 27) [listing 1 of 2 here] | – | 58 | – | – | No. positive cases/tested [11]: 1
25 | CCN(CC)CCNC1c2cc(OC)ccc2OCc2ncccc21 (single isomer, unassigned; (-)) | – | – | – | – | Inhibition [18]: 94%
26 | CCN1CCCC1CNC1c2cc(OC)ccc2OCc2ncccc21 (stereo in doubt; 27) [listing 2 of 2 here] | 25 | – | 3 | – | –
27 | COc1ccc2c(c1)C(NCCN(C(C)C)C(C)C)c1cccnc1CO2 (configuration not stated) | 17 | > 100 | 4 | 0 | –
28 | COc1ccc2c(c1)C(NCCCNC1CCCCC1)c1cccnc1CO2 (configuration not stated) | -1 | > 100 | -1 | – | No. positive cases/tested [19]: 3
29 | COc1ccc2c(c1)C(N1CCN(C)CC1)c1cccnc1CO2 (configuration not stated) | 11 | 81 | 0 | 0 | –
30 | CCN(CC)CCSC1c2cc(OC)ccc2OCc2ncccc21 (configuration not stated) | 20 | 31 | 1 | – | No. positive cases/tested [6]: 0
31 | COc1ccc2c(c1)C(NCCCN(C)C)c1cccnc1CO2 (configuration not stated) | 5 | > 100 | 1 | 0 | –
32 | CCN1CCCC1CNC1c2cc(OC)ccc2OCc2ncccc21 (stereo in doubt; 26) [listing 1 of 2 here] | 23 | – | 2 | – | –
33 | Cc1cccc(C)c1OCC(C)N (configuration not stated) [MEXILETINE] | -3 | 71 | -1 | – | Ratio [3]: 1.7
34 | CCN(CC)CC/C=C1\c2ccccc2OCc2ncccc21 | 45 | 100 | 6 | – | No. positive cases/tested [20]: 2
35 | COc1ccc2c(c1)C(NCCN(C)C)c1cccnc1CO2 (configuration not stated) | 15 | > 100 | 3 | 0 | –
36 | CCN(CC)CCNC1c2cc(O)ccc2OCc2ncccc21 (configuration not stated) | -1 | > 100 | 0 | – | No. positive cases/tested [21]: 1
37 | CCNCCNC1c2cc(OC)ccc2OCc2ncccc21 (configuration not stated) | 1 | > 100 | 2 | – | No. positive cases/tested [6]: 0
38 | COc1ccc2c(c1)C(NN1CCN(C)CC1)c1cccnc1CO2 (configuration not stated) | 7 | > 100 | 2 | 0 | –
39 | CCN(CC)CCNC1c2cc(OC)ccc2OCc2ncccc21 (racemic) | – | – | – | – | Inhibition [18]: 76%
40 | CCN1CCCC1CNC1c2cc(OC)ccc2OCc2ncccc21 (stereo in doubt; 26) [listing 2 of 2 here] | – | – | – | 0 | ED50 [7]: 61 mg/kg
41 | COc1ccc2c(c1)C(NCCN1C(C)CCCC1C)c1cccnc1CO2 (configuration not stated) | 11 | > 100 | 2 | – | No. positive cases/tested [11]: 1
